# Reference: patent US7476691B2, “Sulfamate benzothiophene derivatives as steroid sulfatase inhibitors” (Laboratoire Theramex, priority 2003, dated 2009)
# Legend:
# [1] = tested on: ovariectomized Wistar female rats; assay: Antiuterotrophic/antisulfatase activity: inhibition of E1S stimulated uterus weight; type: in vivo, rat
# Protocol: A short model, derived from Purohit's method, was developed for the evaluation in vivo of nonestrogenic steroid sulfatase inhibitors.
# Wistar female rats were ovariectomized and left to rest for 4 weeks. Prior to treatment, the absence of cyclicity was checked by vaginal smears.
# Animals were supplemented with estrone sulfate (E1S) at 50 μg/kg/day s.c., alone or combined with oral administration of potential sulfatase inhibitors, at 1 mg/kg/day for 4 days. The uteri were removed, freed of adjacent tissue and wet weighed.
# The results are expressed as % of inhibition of the E1S induced stimulation.
# The activity of Ex 55 on E1S stimulated uterus weight was evaluated in relation to the standard inhibitor 6,6,7 COUMATE from 0.03 mg/kg/day to 1 mg/kg/day p.o.
# (§1) In this study, a last administration was performed 24 hours before the necropsy for E1S and E2 serum levels assays. The uteri were removed, freed of adjacent tissue, wet weighed and immediately deep frozen until the determination of sulfatase activity.
# [2] = target: T1, estrone sulfatase (Rattus norvegicus, UniProt P15589); assay: Estrone sulfatase activity in the uterus of treated rats; type: in vivo
# T1 construct: uteri were thawed, weighed and homogenized; from tissue; host or cells: uterus of animals dosed orally (ex vivo homogenate supernatant)
# T1 sequence (P15589 20-577): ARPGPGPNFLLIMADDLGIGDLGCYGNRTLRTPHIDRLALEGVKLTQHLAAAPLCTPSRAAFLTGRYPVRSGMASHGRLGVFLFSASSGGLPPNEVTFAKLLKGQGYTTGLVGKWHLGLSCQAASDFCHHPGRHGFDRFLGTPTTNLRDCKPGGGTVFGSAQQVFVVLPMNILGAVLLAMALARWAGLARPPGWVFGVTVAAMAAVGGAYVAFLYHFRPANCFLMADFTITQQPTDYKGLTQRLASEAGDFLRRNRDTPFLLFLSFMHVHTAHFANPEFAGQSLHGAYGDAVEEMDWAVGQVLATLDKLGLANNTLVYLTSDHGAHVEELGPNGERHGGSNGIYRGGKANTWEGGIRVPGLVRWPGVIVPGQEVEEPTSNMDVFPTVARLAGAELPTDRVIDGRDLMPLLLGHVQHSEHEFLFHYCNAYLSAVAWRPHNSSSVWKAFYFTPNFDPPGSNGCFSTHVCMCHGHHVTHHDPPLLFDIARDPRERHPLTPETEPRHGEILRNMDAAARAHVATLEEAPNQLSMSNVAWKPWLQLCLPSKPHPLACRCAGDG
# Protocol: as §1
# Estrone sulfatase activity was measured according to the method described by Purohit et al., with slight modifications. Briefly, uteri were thawed, weighed and homogenized. Aliquots of the supernatant were treated with dextran-coated charcoal and assayed for sulfatase. E1S activity was assessed after 30 min of incubation with 5 nM of ^3H-E1S and 20 μM of unlabelled E1S as substrate. Radioactivity was measured by LSC.
# Estrone sulfatase activity was expressed as pmol/h/mg protein and reported as percentage of inhibition versus E1S.
# [3] = tested on: prepubescent female rats; assay: Residual estrogenic activity in vivo (uterotrophic assay)
# Protocol: These compounds were checked for residual estrogenic activity in vivo in the classical uterotrophic assay after 3-day administration by oral route in prepubescent female rats.
# Prepubescent female rats were orally treated at 1 mg/rat/day for 3 days. On the day following the last treatment, uteri were removed and wet weight were recorded.
# The results are expressed as % of stimulation of uterus weight in comparison with controls.
# [4] = target: T2, steroid sulfatase (Homo sapiens, UniProt P08842); assay: Xenograft steroid sulfatase activity; type: in vivo, mouse; settings: oral 0.1 mg/kg/day for 6 weeks
# T2 construct: from tissue; host or cells: MCF-7 xenograft tumour removed from athymic nude mice
# T2 sequence (P08842 22-583): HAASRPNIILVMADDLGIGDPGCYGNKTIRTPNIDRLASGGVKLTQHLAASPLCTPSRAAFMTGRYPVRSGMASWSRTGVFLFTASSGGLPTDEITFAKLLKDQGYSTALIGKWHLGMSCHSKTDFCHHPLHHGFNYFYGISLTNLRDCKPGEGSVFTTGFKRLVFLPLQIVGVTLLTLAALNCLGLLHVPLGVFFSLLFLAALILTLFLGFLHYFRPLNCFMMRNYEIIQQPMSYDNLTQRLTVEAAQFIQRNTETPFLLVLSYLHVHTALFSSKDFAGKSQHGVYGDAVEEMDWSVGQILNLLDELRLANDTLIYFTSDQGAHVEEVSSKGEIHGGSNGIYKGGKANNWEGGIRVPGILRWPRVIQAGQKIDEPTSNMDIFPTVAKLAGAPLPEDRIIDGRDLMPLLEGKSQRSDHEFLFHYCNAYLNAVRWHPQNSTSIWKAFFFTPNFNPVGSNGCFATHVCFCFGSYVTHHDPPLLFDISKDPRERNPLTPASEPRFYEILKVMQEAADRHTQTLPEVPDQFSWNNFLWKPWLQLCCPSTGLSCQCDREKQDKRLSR
# Protocol: MCF-7 cells, derived from human breast adenocarcinoma, were injected subcutaneously in ovariectomized athymic nude mice supplemented with estrone sulfate (pellets 0.5 mg/90 day release). Xenograft volumes were determined once weekly. When tumor volumes reached a significant increase, 6,6,7 COUMATE and Ex 55 were orally administered at 0.1 mg/kg/day for 6 weeks.
# Xenografts were measured, removed, weighed, and deep frozen until the determination of steroid sulfatase activity.
smiles,measurement,setting,value
"NS(=O)(=O)Oc1ccc2c(c1)S(=O)(=O)C(CC1CCCCCC1)=C2 [Ex 55, Sulfamic acid, 2-cycloheptylmethyl-benzothiophene-6-yl-1,1-dioxide ester]",Inhibition of E1S stimulated uterus weight,[1]; 0.03 mg/kg/day p.o.,0%
same,Inhibition of E1S stimulated uterus weight,[1]; 0.1 mg/kg/day p.o.,0%
same,Inhibition of E1S stimulated uterus weight,[1]; 0.3 mg/kg/day p.o.,36%
same,Inhibition of E1S stimulated uterus weight,[1]; 1 mg/kg/day p.o.,72%
same,% inhibition of the E1S induced stimulation (uterus weight),"[1]; ovariectomized rats, E1S 50 μg/kg/day s.c., compound oral 1 mg/kg/day for 4 days",81%
same,inhibition of E1S stimulated uterus weight (in words),[1]; summary of the antiuterotrophic assay,significant inhibition
same,"Estrone sulfatase activity in the uterus, percentage of inhibition versus E1S",[2]; 0.03 mg/kg/day p.o.,19%
same,"Estrone sulfatase activity in the uterus, percentage of inhibition versus E1S",[2]; 0.1 mg/kg/day p.o.,64%
same,"Estrone sulfatase activity in the uterus, percentage of inhibition versus E1S",[2]; 0.3 mg/kg/day p.o.,96%
same,"Estrone sulfatase activity in the uterus, percentage of inhibition versus E1S",[2]; 1 mg/kg/day p.o.,97%
same,% stimulation of uterus weight in comparison with controls,"[3]; prepubescent female rats, oral, 1 mg/rat/day for 3 days",3%
same,estrogenicity (in words),[3]; summary of the uterotrophic assay,lack of estrogenicity
same,melting point,,135 °C
same,Xenograft steroid sulfatase activity,[4]; MCF-7 xenografts,263 ± 17 pmol/h/mg protein
same,inhibition at 0.1 mg/kg/day,[4]; read-out: inhibition of intratumoral steroid sulfatase activity,84%
